Our source for the IC50 and GI50 values is patent publication US20090029992A1, “SUBSTITUTED PYRAZOLE COMPOUNDS” (priority 2007, published 2009).

Assay [1] concerns the target T1, recombinant Aurora A (Homo sapiens, UniProt O14965).
T1 construct: purchased Upstate, Lake Placid, N.Y
T1 sequence (O14965 1-403): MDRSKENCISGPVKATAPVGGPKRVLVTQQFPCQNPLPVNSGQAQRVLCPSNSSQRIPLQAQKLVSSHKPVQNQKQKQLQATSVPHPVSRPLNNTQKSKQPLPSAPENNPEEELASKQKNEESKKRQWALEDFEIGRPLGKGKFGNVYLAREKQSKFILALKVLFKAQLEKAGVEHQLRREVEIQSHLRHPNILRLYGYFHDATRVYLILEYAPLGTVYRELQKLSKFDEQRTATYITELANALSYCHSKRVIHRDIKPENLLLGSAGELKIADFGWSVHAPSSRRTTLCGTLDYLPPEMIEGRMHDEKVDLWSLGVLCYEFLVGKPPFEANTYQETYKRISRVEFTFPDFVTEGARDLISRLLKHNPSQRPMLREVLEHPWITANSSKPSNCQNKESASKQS
The experiment in a line: Aurora A (Aurora 2) inhibition assay, Z'-Lyte kinase assay. The following applies: ATP 10 μM, 1 h. The format is biochemical. The method, then:
Compounds were tested for their potency against recombinant Aurora A (Upstate, Lake Placid, N.Y.) using the PanVera Z′-Lyte kinase assay kit—Ser/Thr 1 peptide (Invitrogen, Carlsbad, Calif.). Assays were carried out in kinase assay buffer (50 mM HEPES, pH 7.5, 10 mM MgCl2, 5 mM EGTA, 0.05% Brij-35, 2 mM DTT). Test compounds were initially dissolved in DMSO at 100× the highest tested concentration, then serially diluted to 4× test concentrations in kinase assay buffer. Next, Aurora A (final concentration 200-500 ng/mL), Z′-Lyte Ser/Thr 1 peptide (final concentration 2 μM) and ATP (final concentration 10 μM) were added according to the manufacturer's instructions. Assays were carried out in half-area 96-well white polystyrene assay plates (Corning, Corning, N.Y.) in a final volume of 20 μl. The reaction was allowed to proceed for 1 h at room temperature in the dark, at which point the development reagent and stop reagent were added according to the manufacturer's instructions. Coumarin (Ex. 400 nm, Em. 465 nm) and fluorescein (Ex. 400 nm, Em. 565 nm) fluorescence values were measured on a SpectraFluor Plus plate reader (Tecan, Durham, N.C.). The emission ratio (coumarin/fluorescein) was determined and used to calculate the percent phosphorylation for each well. Wells containing substrate but no kinase and wells containing a phosphopeptide control were used to set 0% and 100% phosphorylation values, respectively. Typically 20-40% of the substrate was phosphorylated in wells without inhibitor. Dose-response curves of relative Aurora A activity vs. inhibitor concentration were plotted with Grafit (Erithacus Software, Horley, Surrey, UK).

The target in assay [2] is T2, N-terminal His-tagged human Src (Homo sapiens, UniProt P12931).
T2 construct: His (N); purchased Upstate USA Inc, 706 Forest Street, Charlottesville, Va
T2 sequence (P12931 whole entry): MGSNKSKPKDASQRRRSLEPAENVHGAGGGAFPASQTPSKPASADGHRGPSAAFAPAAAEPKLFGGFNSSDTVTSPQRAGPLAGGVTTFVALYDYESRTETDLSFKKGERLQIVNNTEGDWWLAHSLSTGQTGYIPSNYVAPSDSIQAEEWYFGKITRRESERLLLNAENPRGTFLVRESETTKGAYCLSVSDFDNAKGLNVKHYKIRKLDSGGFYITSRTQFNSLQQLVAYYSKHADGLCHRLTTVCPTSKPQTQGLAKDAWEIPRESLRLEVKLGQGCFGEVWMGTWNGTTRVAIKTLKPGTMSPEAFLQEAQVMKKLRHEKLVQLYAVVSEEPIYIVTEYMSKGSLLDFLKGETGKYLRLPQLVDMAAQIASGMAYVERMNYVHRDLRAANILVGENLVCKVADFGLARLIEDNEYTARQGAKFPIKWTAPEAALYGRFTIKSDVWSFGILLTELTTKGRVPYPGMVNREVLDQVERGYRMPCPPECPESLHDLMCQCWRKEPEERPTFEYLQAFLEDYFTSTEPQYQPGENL
The experiment in a line: Src kinase inhibition assay (33P-ATP filter assay). It is filed as biochemical.

For assay [3], the target named is T3, N-terminal His6-tagged recombinant human KDR, residues 790-end (Homo sapiens, UniProt P35968).
T3 construct: recombinant human KDR, residues 790-end; His6 (N); purchased Upstate USA Inc, 706 Forest Street, Charlottesville, Va
T3 sequence (P35968 790-1356 limits assumed): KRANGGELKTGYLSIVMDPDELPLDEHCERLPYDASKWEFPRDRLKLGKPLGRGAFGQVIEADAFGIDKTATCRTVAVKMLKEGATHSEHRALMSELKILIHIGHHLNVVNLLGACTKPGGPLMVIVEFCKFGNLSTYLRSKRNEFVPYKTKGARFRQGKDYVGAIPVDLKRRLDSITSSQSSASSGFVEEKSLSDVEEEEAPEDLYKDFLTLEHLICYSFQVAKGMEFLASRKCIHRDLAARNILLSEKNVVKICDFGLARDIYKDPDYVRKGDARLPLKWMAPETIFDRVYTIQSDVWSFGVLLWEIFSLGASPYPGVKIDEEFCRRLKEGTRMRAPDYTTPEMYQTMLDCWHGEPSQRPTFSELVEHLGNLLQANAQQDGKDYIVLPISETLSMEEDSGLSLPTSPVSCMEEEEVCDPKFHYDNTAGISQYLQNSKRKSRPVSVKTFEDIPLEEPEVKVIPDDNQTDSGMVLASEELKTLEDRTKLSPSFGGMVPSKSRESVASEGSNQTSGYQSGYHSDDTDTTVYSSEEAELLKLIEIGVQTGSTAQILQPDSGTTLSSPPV
As to the kind of experiment: KDR kinase inhibition assay (33P-ATP filter assay). It is filed as biochemical. The procedure, abridged:
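Radiometric filter assay: reaction started with Mg acetate (10 mM)/[γ-33P]ATP mix, run 40 min at room temperature in 8 mM MOPS pH 7.0 with 0.2 mM EDTA, MBP substrate (0.33 mg/mL) and recombinant KDR 790-end (5-10 mU). Phosphate incorporation by scintillation counting of P30 filtermats, compared with uninhibited reactions.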

Assay [4] relates to HCT116 cells. The experiment in a line: Whole cell cytotoxicity assay, Sulforhodamine B. It is filed as cell-based. The following applies: Homo sapiens, HCT-116, HCT116, 96 hours incubation, SRB; for IC50: read-out: IC50 values in this assay (HCT116 cell growth). The method, then: Human tumor-derived cell lines, HCT116 or MCF7 (ATCC) were plated in a 96 well plate in DMEM containing 10% fetal bovine serum and 2 mM L-glutamine at a density of 500 HCT116 cells or 1,000 MCF7 cells per well and incubated at 37° C., 5% CO2, for 24 hours prior to the addition of experimental compounds. Compounds were added using the dilution series indicated to duplicate plates and the cells were incubated in media plus compound for 96 hours. An additional plate was fixed in 10% TCA at the time of the addition of compound to provide a measurement of the cell population at time zero, the time of drug addition. Following the 96 hour incubation, cells were fixed in situ by gently aspirating off the culture media and then adding 50 ul of ice cold 10% TCA per well and incubation at 4° C. for 60 minutes. The plates were washed with tap water five times and allowed to air dry for 5 minute. 50 ul of a 0.4% (w/v) Sulforhodamine B solution in 1% (v/v) acetic acid was added per well and the cells were incubated for 30 minutes at room temperature. Following staining, plates were washed four times with 1% acetic acid to remove any unbound dye and then allowed to air dry for 5 minutes. The stain was solubilized with 100 ul of 10 mM Tris pH 10.5 per well and placed on an orbital rotator for 5 minutes. The absorbance was read at 570 nm. Percentage growth was calculated using the absorbance readings from the time zero plate (Tz) and the dilution series plate […] which included a column of cells grown in media without compound as a control (C) using the formulas:
[(Ti−Tz)/(C−Tz)]×100 for concentrations for which Ti>/=Tz
[(Ti−Tz)/Tz]×100 for concentrations for which Ti<Tz.
Three dose response parameters were calculated for each experimental agent. Growth inhibition of 50% (GI50) was calculated from [(Ti−Tz)/(C−Tz)]×100=50, which was the drug concentration resulting in a 50% reduction in the net protein increase (as measured by SRB staining) in control cells during the drug incubation. The drug concentration resulting in total growth inhibition (TGI) was calculated from Ti=Tz. The LC50 (concentration of drug resulting in a 50% reduction in the measured protein at the end of the drug treatment as compared to that at the beginning) indicating a net loss of cells following treatment ws calculated from [(Ti−Tz)/Tz]×100=−50. Values are calculated for each of these three parameters if the level of activity was reached; however, if the effect was not reached or was exceeded, the value for that parameter is expressed as greater or less than the maximum or minimum concentration tested.

Where [5] appears, read: group with IC50 greater than 100 nM.

`Cc1cc(Nc2cc(NC3CCOCC3)nc(-c3cccc(Cl)c3)n2)n[nH]1` [Compound 23, 2-(3-chlorophenyl)-N^4-(5-methyl-1H-pyrazol-3-yl)-N^6-(tetrahydro-2H-pyran-4-yl)pyrimidine-4,6-diamine]: the IC50 in assay [1] is no more than 0.1 µM; in assay [2] (setting [5]) it was no more than 1 µM; in assay [3] (setting [5]) it was no more than 1 µM; in assay [4], 1 to 10 µM.

Regarding `COc1ccc(-c2nc(Nc3cc(C)[nH]n3)cc(NC3CCOCC3)n2)cc1` [Compound 28, 2-(4-methoxyphenyl)-N^4-(5-methyl-1H-pyrazol-3-yl)-N^6-(tetrahydro-2H-pyran-4-yl)pyrimidine-4,6-diamine], the IC50 in assay [1] is no more than 0.1 µM; in assay [2] (40 minutes at room temperature), no more than 0.1 µM; in assay [3] (setting [5]), no more than 1 µM; in assay [4], 1 to 10 µM.

In the case of `Cc1cc(Nc2cc(N3CCN(C)CC3)nc(-c3ccc(F)cc3F)n2)n[nH]1` [Example 172, 2-(2,4-difluorophenyl)-N-(5-methyl-1H-pyrazol-3-yl)-6-(4-methylpiperazin-1-yl)pyrimidin-4-amine], the IC50 was no more than 1 µM in assay [1] (setting [5]), no more than 0.1 µM in assay [2] (40 minutes at room temperature) and no more than 0.1 µM in assay [3] (40 minutes at room temperature). For the same compound, in assay [4] (read-out: GI50 HCT116 cell growth), the GI50 is no more than 1 µM.

As for `Cc1cc(Nc2cc(N3CCN(C)CC3)nc(-c3ccccc3F)n2)n[nH]1` [Compound 34, 2-(2-fluorophenyl)-N-(5-methyl-1H-pyrazol-3-yl)-6-(4-methylpiperazin-1-yl)pyrimidin-4-amine], the IC50 was no more than 0.1 µM in assay [1], no more than 0.1 µM in assay [2] (40 minutes at room temperature), no more than 0.1 µM in assay [3] (40 minutes at room temperature) and 1 to 10 µM in assay [4].
